In patent publication US20190367558A1, “ANTIBODY/DRUG CONJUGATES AND METHODS OF USE” (ESPERANCE PHARMACEUTICALS, INC., priority 2012, published 2019):

Assays:
Format in all cases: cell-based, human
[1] = system: U937 (CD20 negative leukemia cell line); assay: Membrane integrity, Cytotox Glo luminometric assay (Examples 19, 20, 22); conditions: CHO expressed IgG2 ADCs, Example 22
Procedure: The concentration of each naked antibody fragment and ADC was determined spectrophotometrically (OD280). Naked antibody scFv-Fc Mw 52,562 g/mol at a concentration of 1.1 mg/ml, Phor 18 conjugated antibodies were Phor18-VL-scFvFc (Mw 54,685 g/mol, 1.0 mg/ml), scFv-Fc-CH3-Phor18 (Mw 54,685 g/mol, 0.8 mg/ml). Human Non-Hodgkin's lymphoma cells Daudi (CD20 positive, passage number p7) and human leukemia cell line U937 (CD20 negative, p 6) were seeded at a density of 2,000 cells per well in opaque plates in heat inactivated full medium using cell dissociation buffer. […]
(§1) Cells incubated for 4 hours were assayed for membrane integrity using a luminometric assay kit (Promega, Madison, Wis., Cytotox Glo G9292 lot #26229601). Cell viability was determined was determined after 24 hours using a luminescent assay kit (Promega, Madison, Wis., Cell Titer Glo, G 7572, lot 30731602). […]
as §1, with “24, and 48” for “24”, “31386501).” for “30731602).”

[2] = system: Daudi (CD20 positive Non-Hodgkin's lymphoma cells); assay: Membrane integrity, Cytotox Glo luminometric assay (Examples 12, 16, 19, 20, 22); conditions: 4 h, CHO expressed IgG2 ADCs, Example 22
Procedure: (§2) Naked antibody anti-CD20-IgG1-Phor18 were chemically conjugated (MS4A and AT80), Mw app.158,000 g/mol at a concentrations of 0.34 mg/ml (MS4A-Phor18) and 0.76 mg/ml (AT-80-Phor18). Cell lines were obtained at the American Type Cell Collection (Mannassas, Va.). Human Non-Hodgkin's lymphoma cells Daudi (CD20 positive, passage number p2), Raji (CD20 positive p 2) and human leukemia cell line U937 (CD20 negative, p 10) were seeded at a density of 3,000 cells per well in opaque plates in heat inactivated full medium. After 24 hours cells were replenished with fresh media (75 μl) and incubated with 25 μl of a 4× serial dilution of MS4A1-Phor18 and AT80-Phor18 of 0.001, 0.01, 0.1, 1, 10, 100 and 500 nM (N=6). Cells incubated for 2-5 hours were assayed for membrane integrity using a luminometric assay kit (Promega, Madison, Wis., Cytotox Glo G9292 lot #301329). Cell viability was determined was determined after 24, and 48 hours using a luminescent assay kit (Promega, Madison, Wis., Cell Titer Glo, G 7572, lot 30068102).
(§3) The concentration of each naked antibody fragment and ADC was determined according to Bradford. Naked antibody scFv Mw 27,088 g/mol at a concentration of 0.3 mg/ml, minibody Mw 78,988 g/mol, 0.231 mg/ml; Phor 18 conjugated antibodies were scFv-Phor18 (Mw 29,349 g/mol, 0.9 mg/ml) and minibody-Phor18 (Mw 93,515, 0.48 mg/ml). Cell lines were obtained at the American Type Cell Collection (Mannassas, Va.). Human Non-Hodgkin's lymphoma cells Daudi (CD20 positive, passage number p8) and human leukemia cell line U937 (CD20 negative, p 16) were seeded at a density of 2,000 cells per well in opaque plates in heat inactivated full medium. After 24 hours cells were replenished with fresh media (75 μl) and incubated with 25 μl of a 4× serial dilution of scFv-Phor18 and minibody-Phor18 ADC and naked antibody fragment (scFv and minibody) prepared in cell culture media were added at concentrations of 0.0001, 0.001, 0.01, 0.1, 1, 10, 100, 200, and 500 nM (N=6). Cells incubated for 4 hours were assayed for membrane integrity using a luminometric assay kit (Promega, Madison, Wis., Cytotox Glo G9292 lot #301329). Cell viability was determined was determined after 24, 48 and 72 hours using a luminescent assay kit (Promega, Madison, Wis., Cell Titer Glo, G 7572, lot 30062102).
(§4) Controls for 100% cell viability (culture media) and 100% cell death (0.1% Triton X 100) incubated under the same conditions.
(§5) Data were processed and analyzed to obtain IC50 values using Graph Pad Prizm version 5.00 for Windows, GraphPad Software, San Diego Calif. USA, www-graphpad-com (Graph Pad Prizm, Inc). Statistical analysis for significance was determined by a two-tailed Student's T-test. Each test was conducted using 2 plates with 2-3 wells each to achieve an N of 4-6 data points per time point.
(§6) The concentration of each naked antibody fragment and ADC was determined spectrophotometrically (OD280). Naked antibody scFv-Fc Mw 52,562 g/mol at a concentration of 1.1 mg/ml, Phor 18 conjugated antibodies were Phor18-VL-scFvFc (Mw 54,685 g/mol, 1.0 mg/ml), scFv-Fc-CH3-Phor18 (Mw 54,685 g/mol, 0.8 mg/ml). Human Non-Hodgkin's lymphoma cells Daudi (CD20 positive, passage number p7) and human leukemia cell line U937 (CD20 negative, p 6) were seeded at a density of 2,000 cells per well in opaque plates in heat inactivated full medium using cell dissociation buffer. After 24 hours cells were replenished with fresh media (75 μl) and incubated and incubated with 25 μl of a 4× serial dilution of each ADC and naked antibody prepared in cell culture media were added at concentrations of 0.01, 0.1, 1, 10, 100, 200 and 500 nM for scFvFc, Phor18-VL-scFvFc and scFv-Fc-CH3-Phor18.
as §1

[3] = system: U937 (CD20 negative leukemia cell line); assay: Cell viability, Cell Titer Glo luminescent assay (Examples 12, 16, 19, 20, 22); conditions: CHO expressed IgG2 ADCs, Example 22
Procedure: as §2, §3, §6
Cells incubated for 4 hours were assayed for membrane integrity using a luminometric assay kit (Promega, Madison, Wis., Cytotox Glo G9292 lot #26229601). Cell viability was determined was determined after 24 hours using a luminescent assay kit (Promega, Madison, Wis., Cell Titer Glo, G 7572, lot 30731602). Controls for 100% cell viability (culture media) and 100% cell death (0.1% Triton X 100) incubated under the same conditions.
Human Non-Hodgkin's lymphoma cells Daudi (CD20 positive, passage number p3) and human leukemia cell line U937 (CD20 negative, p 12) were seeded at a density of 2,000 cells per well in opaque plates in heat inactivated full medium using cell dissociation buffer. […]

[4] = system: Daudi (CD20 positive Non-Hodgkin's lymphoma cells); assay: as above; conditions: CHO expressed IgG2 ADCs, Example 22
Procedure: as §2, §3, §4, §5, §6, §1

IgG2: naked anti-CD20 IgG2 with Rituxan CDRs, CHO cells [reference compound]
Not toxic: IC50, U937 4 h (Membrane integrity) [1] | IC50, Daudi 4 h (Membrane integrity) [2] | IC50, U937 24 h ([3]; U937, 24 h) | IC50, U937 48 h ([3]; U937, 48 h) | IC50, Daudi 24 h ([4]; 24 h) | IC50, Daudi 48 h ([4]; 48 h)
